pIC50: −log10 of the molar value. Values belong to the compound of their own block, whether it stands above or below them.
How the values were obtained:
[1] = system: THP-1, MOLM13, OCI-AML3 and MV411 cells; experiment: Proliferation and apoptosis of human AML cell lines THP-1, MOLM13, OCI-AML3 and MV411; format: cell-based; settings: 50 μM, single agent
Description: (A-B) Proliferation and apoptosis of human AML cell lines THP-1, MOLM13, OCI-AML3 and MV411 treated with vehicle control and 50 μM Molidustat (5). Data represent mean±SEM; **** p<0.0001.
(A-B) Proliferation and apoptosis of human AML cell lines MOLM-13, OCI-AML3, MV411 and THP-1 treated with vehicle control, 50 μM Daprodustat (2), 50 μM IOX5 (68, example 46), 0.1 μM Venetoclax (MOLM-13 and MV411), 0.01 μM Venetoclax (OCI-AML3 and THP-1) and combination therapy. (C-D) Early-([…]) and late stage (PI^+ Annexin^+) apoptosis of human AML patient samples treated with vehicle control, 50 μM Daprodustat (2), 50 μM IOX5 (68, example 46), 0.01 μM Venetoclax and combination therapy. Data represent mean±SEM; * p<0.05; ** p<0.01, *** p<0.001, **** p<0.0001.
Viable cells were counted by trypan blue exclusion at the indicated time points. To analyse cells undergoing apoptosis, cells were suspended in binding buffer containing PE-conjugated Annexin-V or FITC-conjugated Annexin-V, and either PI or DAPI.

[2] = system: MV411 AML cells in NBSGW recipient mice; experiment: MV411 xenotransplantation in NBSGW mice, combination with Venetoclax; format: in vivo, mouse; settings: 14 days treatment; IOX5 i.p. twice daily, Venetoclax o.g. once daily
Description: 14 days following transplantation, recipient mice were treated with IOX5 (68, example 46), Venetoclax or vehicle control. Dosing regimen consisted of 2× daily via i.p. injection (IOX5 (68, example 46) or vehicle) and/or 1× daily via o.g. (Venetoclax or vehicle). […] (E-G) Percentage of human CD45+CD33+CD14+ cells in the BM, spleen and liver, respectively (n=5). (H) Survival curve of mice treated with IOX5 (68, example 46), Venetoclax, IOX5 (68, example 46)+Venetoclax or vehicle control (n=6-7). (I-J) Proliferation and Annexin-V+DAPI+analyses, respectively, of THP-1 cells treated with Ven, IOX5, FIH inhibitor (FIHi; DM-NOFD), IOX5 (68, example 46)+FIHi, IOX5 (68, example 46)+Ven, FIHi+Ven, IOX5 (68, example 46)+FIHi+Ven or vehicle control (n=6). Statistical significance represented as in (A-B). Data represent mean±SEM; *p<0.05; ** p<0.01; *** p<0.001; **** p<0.0001.
100,000 THP-1 cells, 100,000 OCI-AM3 cells or 100,000 MV411 cells (for combination experiments) were tail vein injected into non-irradiated 10-to 12-week-old mixed gender NBSGW mice and began drug treatment 14 days after transplantation. […] Mice were culled 5 weeks after transplantation.
Mice in combination treatment experiments with Venetoclax (ABT-199) (MCE) were dosed once daily with 100 mg/kg via oral gavage (o.g.).
Further to findings in Example 170, the efficacy of IOX5 (68, example 46)+Venetoclax combination in vivo was investigated (FIG. 38D). MV411 AML cells were engrafted (with MLL-AF4 and FLT3-ITD mutation) and the recipient mice were treated with a vehicle, IOX5 (68, example 46), Venetoclax, and a combination of IOX5 (68, example 46)+Venetoclax.

[3] = system: other 2OG oxygenases (off-target sites commonly inhibited by existing PHD inhibitors); experiment: Selectivity versus other 2OG oxygenases / off-target sites (FIG. 14); format: biochemical
HIF1-α in HEK293 T cells = experiment: Immunoblots of HEK293 T cells; format: cell-based; settings: HEK293 T cells, 0.5, 1, 5, 10, 20, 50 and 100 μM, 18 hours
Description: Cells were grown to 90% confluency.
Protocols for cell culture and immunoblotting were performed using the established methods.

[4] = molecular target: KDM4A: lysine specific demethylase 4A (Homo sapiens (Human), UniProt O75164); experiment: KDM4A LCMS demethylation assay
KDM4A: lysine specific demethylase 4A, sequence (O75164 1-359): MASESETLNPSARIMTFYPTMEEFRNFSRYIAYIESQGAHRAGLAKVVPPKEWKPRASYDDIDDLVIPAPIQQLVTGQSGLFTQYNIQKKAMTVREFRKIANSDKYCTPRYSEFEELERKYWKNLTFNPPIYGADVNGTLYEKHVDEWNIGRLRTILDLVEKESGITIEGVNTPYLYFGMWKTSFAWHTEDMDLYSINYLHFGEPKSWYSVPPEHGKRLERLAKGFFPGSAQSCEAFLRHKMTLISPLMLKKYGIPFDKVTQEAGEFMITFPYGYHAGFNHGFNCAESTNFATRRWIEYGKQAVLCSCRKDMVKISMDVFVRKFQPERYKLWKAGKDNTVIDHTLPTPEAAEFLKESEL
Description: (§1) 4 ml of enzyme reaction were injected and loaded onto a ZORBAX RRHD Eclipse Plus C18 column (Agilent Technologies, CA, US). Solvent A consisted of LCMS grade water containing 0.1% (v/v) formic acid and solvent B consisted of acetonitrile containing 0.1% (v/v) formic acid. […] The mass spectrometer was operated in the positive ion mode with a drying gas temperature of 280° C., drying gas flow rate of 13 L/min, nebulizer pressure of 40 psig, sheath gas temperature of 350° C., sheath gas flow rate of 12 L/min, capillary voltage of 4000 V, nozzle voltage of 1000 V. All acquired data were analyzed using Agilent MassHunter Qualitative Analysis (Version B.07.00) software.

[5] = molecular target: KDM5B: lysine specific demethylase 5B (Homo sapiens (Human), UniProt Q9UGL1); experiment: KDM5B LCMS demethylation assay
KDM5B: lysine specific demethylase 5B, sequence (Q9UGL1 1-822): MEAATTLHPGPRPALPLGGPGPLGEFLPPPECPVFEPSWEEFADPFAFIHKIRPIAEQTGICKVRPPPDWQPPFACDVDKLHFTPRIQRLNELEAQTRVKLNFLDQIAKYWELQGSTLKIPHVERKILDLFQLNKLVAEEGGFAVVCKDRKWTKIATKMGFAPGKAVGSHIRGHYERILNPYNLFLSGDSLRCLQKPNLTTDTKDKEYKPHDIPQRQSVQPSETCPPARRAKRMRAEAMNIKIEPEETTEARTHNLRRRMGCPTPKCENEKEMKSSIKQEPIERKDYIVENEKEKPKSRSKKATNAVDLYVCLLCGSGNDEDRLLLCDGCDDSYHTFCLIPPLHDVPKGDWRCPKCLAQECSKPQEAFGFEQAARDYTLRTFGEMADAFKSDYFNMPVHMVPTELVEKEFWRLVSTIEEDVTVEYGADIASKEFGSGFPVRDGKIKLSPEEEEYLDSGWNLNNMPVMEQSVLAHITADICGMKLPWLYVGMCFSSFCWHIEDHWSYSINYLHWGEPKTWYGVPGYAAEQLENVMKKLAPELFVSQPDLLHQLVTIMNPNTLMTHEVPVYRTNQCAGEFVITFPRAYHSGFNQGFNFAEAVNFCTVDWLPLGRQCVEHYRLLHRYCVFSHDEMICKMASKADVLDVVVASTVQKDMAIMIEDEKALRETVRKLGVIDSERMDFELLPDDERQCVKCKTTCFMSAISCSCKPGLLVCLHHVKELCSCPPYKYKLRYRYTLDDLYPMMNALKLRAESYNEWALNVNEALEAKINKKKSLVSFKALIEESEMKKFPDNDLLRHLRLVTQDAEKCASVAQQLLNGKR
Description: KDM5B enzyme reactions were performed under optimized buffer conditions (50 mM MES pH 7.0, 50 mM NaCl, 1 mM TCEP). […] The enzyme reaction was progressed for 30 minutes, and the reaction stopped by addition of formic acid to a final concentration of 1% (v/v). Control reactions included a 0.5% DMSO control and a reaction with a known inhibitor of KDM5B (10 mM KDOAM25, ^i).
as §1

[6] = molecular target: KDM6B: lysine specific demethylase 6B (Homo sapiens (Human), UniProt O15054); experiment: KDM6B LCMS demethylation assay
KDM6B: lysine specific demethylase 6B, sequence (O15054 1141-1590): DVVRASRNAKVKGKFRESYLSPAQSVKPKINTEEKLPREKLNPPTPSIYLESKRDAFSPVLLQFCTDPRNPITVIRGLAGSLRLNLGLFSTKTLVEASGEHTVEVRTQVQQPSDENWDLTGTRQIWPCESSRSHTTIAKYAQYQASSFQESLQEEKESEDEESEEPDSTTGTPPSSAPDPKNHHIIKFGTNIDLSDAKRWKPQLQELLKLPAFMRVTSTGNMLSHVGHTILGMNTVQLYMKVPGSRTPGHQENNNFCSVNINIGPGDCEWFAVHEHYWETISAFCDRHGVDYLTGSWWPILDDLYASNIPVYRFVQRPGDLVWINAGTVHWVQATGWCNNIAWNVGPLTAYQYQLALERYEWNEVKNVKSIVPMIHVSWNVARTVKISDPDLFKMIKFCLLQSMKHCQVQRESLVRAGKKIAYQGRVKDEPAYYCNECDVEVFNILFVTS
Description: The peptide substrate for KDM5B was a 21-mer histone-H3 peptide (ARTK(me3)[sequence]), as synthesized by Peptide Protein Research (Hampshire, UK). The KDM6B peptide substrate was a 17-mer histone-H3 peptide ([sequence](me3)[sequence]), as synthesized by GL Biochem (Shanghai) Ltd (Shanghai, China).
KDM6B reactions were performed under optimized buffer conditions (50 mM MES pH 7.0). […] The enzyme reaction was progressed for 30 minutes and the reaction stopped by addition of formic acid to a final concentration of 1% (v/v). Control reactions included a 0.5% DMSO control and a reaction with a known inhibitor of KDM6B (10 mM GSKJ1,^j).
as §1

Structure (SMILES): O=c1c(-n2ccnn2)c[nH]n1-c1cc(N2CCOCC2)ncn1 [molidustat]
cell death (apoptosis) [1]: induced cell death
proliferation [1]: reduced proliferation

Structure (SMILES): CC1(C)CCC(CN2CCN(c3ccc(C(=O)NS(=O)(=O)c4ccc(NCC5CCOCC5)c([N+](=O)[O-])c4)c(Oc4cnc5[nH]ccc5c4)c3)CC2)=C(c2ccc(Cl)cc2)C1 [Venetoclax, venetoclax, reference compound]
leukaemic burden [2]: decreased leukaemic burden
survival of recipient mice [2]: extended survival of the recipient mice

IC50 for off-target sites [3]: very high IC50
pIC50 [4]: < 4.00
pIC50 [5]: < 4.00
pIC50 [6]: < 4.00
Structure (SMILES): O=C(NCC1CCC(C(F)(F)F)CC1)c1cnc(-n2cccn2)cc1O (stereo not drawn) [Compound 68, 4-Hydroxy-6-(1H-pyrazol-1-yl)-N-((4-(trifluoromethyl)cyclohexyl)methyl) nicotinamide]
protein level of HIF1-α (immunoblot) (HIF1-α in HEK293 T cells): increase cellular HIF-1α

Reference: patent publication US20260027096A1, “PHD INHIBITORS” (Oxford University Innovation Limited, priority 2023, published 2026)
